Patent publication US11110091B2, “Modulators of toll-like receptors” (Gilead Sciences, Inc., priority 2008, dated 2021)

These molecules were tested on human Peripheral Blood Mononuclear Cell (PMBC) (assay: PBMC assay: cytokine (IFN-α) stimulation at 24 hours). Conditions: lowest concentration stimulating IFN-α production at least 3-fold over background, Luminex, read-out: IFN MEC.
Assay type: cell-based
Protocol: Assays were conducted to determine cytokine stimulation at 24 hours from human Peripheral Blood Mononuclear Cell (PMBC) using the compounds of the present invention. The assays were run in duplicate, with 8-point, half-log dilution curves. The compounds of the present invention were diluted from 10 mM DMSO solution. Cell supernatants are assayed directly for IFNα and 1:10 dilution for TNFα. The assays were performed in a similar fashion as described in Bioorg. […] Specifically, cryo-preserved PBMCs were thawed and seeded 96 well plates with 750,000 cells/well in 190 μL/well cell media. The PBMCs were then incubated for 1 hour at 37° C. at 5% CO2. Then, the compounds of the present invention were added in 10 μL cell media at 8 point, half-log dilution titration. The plates were incubated at 37° C. and 5% CO2 for 24 hours and then spinned at 1200 rpm for 10 min, which was followed by collecting supernatant and storing the same at −80° C. Cytokine secretion was assayed with Luminex and Upstate multi-plex kits, using a Luminex analysis instrument. The IFN-α MEC value for a compound was the lowest concentration at which the compound stimulated IFN-α production at least 3-fold over the background as determined using the assay method above.

| Compound | minimal effective concentration [µM] |
| --- | --- |
| CC(C)(C)CNc1nc(N)c2c(n1)N(Cc1cccc(CN3CCCC3)c1)CC(=O)N2 [Example 34] | > 0.03 |
| CC(C)CCOc1nc(N)c2c(n1)N(Cc1cccc(CN3CCCC3)c1)CC(=O)N2 [Example 11] | > 0.03 |
| CC1(COc2nc(N)c3c(n2)N(Cc2cccc(CN4CCCC4)c2)CC(=O)N3)CC1 [Example 6, 4-amino-2-{(1′″-methylcycloprop-1′″-yl)methoxy}-8-[3′-(pyrrolidin-1″-ylmethyl)-benzyl]-5,6,7,8-tetrahydropteridin-6-one] | > 0.03 |
| Nc1nc(OCC2CC2)nc2c1NC(=O)CN2Cc1cccc(CN2CCCC2)c1 [Example 5, 4-amino-2-{(cyclopropyl)methoxy}-8-[3′-(pyrrolidin-1″-ylmethyl)-benzyl]-5,6,7,8-tetrahydropteridin-6-one] | > 0.03 |
| CCCCNc1nc(N)c2c(n1)N(Cc1cccc(CN3CCCC3)c1)CCC(=O)N2 [Example 76] | > 0.03 |
| COCCOc1nc(N)c2c(n1)N(Cc1ccc(-c3cccc(CN4CCCC4)c3)cc1)CC(=O)N2 [Example 94] | ≤ 0.03 |
| CCCCOc1nc(N)c2c(n1)N(CCCN(Cc1ccccc1)C(=O)CN1CCN(C)CC1)CC(=O)N2 [Example 110] | ≤ 0.03 |
| CC(C)(O)CCOc1nc(N)c2c(n1)N(Cc1cccc(CN3CCCC3)c1)CC(=O)N2 [Example 28] | > 0.03 |
| CCCN(C)C(=O)c1nc(N)c2[nH]c(=O)c(=O)n(Cc3cccc(CN4CCCC4)c3)c2n1 [Example 92] | > 0.03 |
| CCCCOc1nc(N)c2c(n1)N(Cc1cccc(CN3C(C)CCC3C)c1)CC(=O)N2 (stereo not shown) [Example 102] | ≤ 0.03 |
| CCCCOc1nc(N)c2c(n1)N(Cc1ccc3c(c1)CNCC3)CC(=O)N2 [Example 51] | ≤ 0.03 |
| COC[C@H](C)Nc1nc(N)c2c(n1)N(Cc1cccc(CN3CCCC3)c1)CC(=O)N2 [Example 37] | ≤ 0.03 |
| CCCCOc1nc(N)c2[nH]c(=O)c(=O)n(Cc3ccc(C)nc3)c2n1 [Example 112] | > 0.03 |
| COC[C@@H](C)Oc1nc(N)c2c(n1)N(Cc1cccc(CN3CCCC3)c1)CC(=O)N2 [Example 88] | ≤ 0.03 |
| CCCCOc1nc(N)c2[nH]c(=O)c(=O)n(Cc3ccc(-c4cccc(CN5CCCC5)c4)cc3)c2n1 [Example 97] | ≤ 0.03 |
| COP(=O)(CCOc1nc(N)c2c(n1)N(Cc1cccc(CN3CCCC3)c1)CC(=O)N2)OC [Example 18] | > 0.03 |
| CCOc1nc(N)c2c(n1)N(Cc1cccc(CN3CCCC3)c1)CC(=O)N2 [Example 62] | > 0.03 |
| CCCCOc1nc(N)c2c(n1)N(Cc1ccc(CN3CCCC3)cc1)CC(=O)N2 [Example 4, 4-amino-2-n-butoxy-8-[4′-(pyrrolidin-1″-ylmethyl)-benzyl]-5,6,7,8-tetrahydropteridin-6-one] | ≤ 0.03 |
| CCCCOc1nc(N)c2c(n1)N(Cc1ccc3c(c1)CCN(C(C)C)C3)CC(=O)N2 [Example 105] | ≤ 0.03 |
| CCCCOc1nc(N)c2c(n1)N(Cc1cccc(CN3CCCC3)c1)C(O)C(=O)N2 (stereo not shown) [Example 82] | ≤ 0.03 |
| CCCCOc1nc(N)c2c(n1)N(Cc1ccc(CN3CCCC3)cc1)C(C)C(=O)N2 (stereo not shown) [Example 65] | ≤ 0.03 |
| CCOC(=O)CN(Cc1cccc(CN2CCCC2)c1)c1nc(O[C@@H](C)COC)nc(N)c1[N+](=O)[O-] [Compound 86] | ≤ 0.03 |

| Compound | minimal effective concentration [µM] |
| --- | --- |
| CCCCOc1nc(N)c2c(n1)N(Cc1ccc3c(c1)CCNC3)CC(=O)N2 [Example 103] | ≤ 0.03 |
| CCC[C@H](C)Oc1nc(N)c2c(n1)N(Cc1ccc(C)nc1)CC(=O)N2 [Example 116] | > 0.03 |
| CCCCOc1nc(N)c2c(n1)N(Cc1cccc(CN3CCN(C)CC3)c1)CC(=O)N2 [Example 79] | ≤ 0.03 |
| COCCOc1nc(N)c2[nH]c(=O)c(=O)n(Cc3cccc(CN4CCCC4)c3)c2n1 [Example 91] | > 0.03 |
| Nc1nc(OCc2cccnc2)nc2c1NC(=O)CN2Cc1cccc(CN2CCCC2)c1 [Example 16] | > 0.03 |
| COCCOc1nc(N)c2[nH]c(=O)c(=O)n(Cc3ccc(-c4ccc(CN5CCCC5)cc4)cc3)c2n1 [Example 99] | ≤ 0.03 |
| CCCCOc1nc(N)c2c(n1)N(Cc1ccc3c(c1)CN(CC1CCC1)CC3)CC(=O)N2 [Example 72] | ≤ 0.03 |
| CCC[C@H](C)Oc1nc(N)c2c(n1)N(Cc1ccc(CN3CCCC3)cc1)CC(=O)N2 [Example 61] | ≤ 0.03 |
| Nc1nc(N2CCC2)nc2c1NC(=O)CN2Cc1cccc(CN2CCCC2)c1 [Example 42] | > 0.03 |
| CCCCNc1nc(N)c2c(n1)N(Cc1cccc(CN3CCCC3)c1)CC(=O)N2 [Example 32] | > 0.03 |
| Nc1nc(NC2CCCC2)nc2c1NC(=O)CN2Cc1cccc(CN2CCCC2)c1 [Example 41] | ≤ 0.03 |
| Nc1nc(OCCCCO)nc2c1NC(=O)CN2Cc1cccc(CN2CCCC2)c1 [Example 27] | > 0.03 |
| Nc1nc(OC2CCCC2)nc2c1NC(=O)CN2Cc1cccc(CN2CCCC2)c1 [Example 21] | ≤ 0.03 |
| Nc1nc(O)nc2c1NC(=O)CN2Cc1cccc(CN2CCCC2)c1 [Example 63] | > 0.03 |
| CCCCCOc1nc(N)c2c(n1)N(Cc1cccc(CN3CCCC3)c1)CC(=O)N2 [Example 12] | > 0.03 |
| Nc1nc(OCC2CCOCC2)nc2c1NC(=O)CN2Cc1ccc(C(F)(F)F)nc1 [Example 118] | > 0.03 |
| CCCCOc1nc(N)c2c(n1)N(CCC1CCN(CC3CC3)CC1)CC(=O)N2 [Example 113] | ≤ 0.03 |
| Nc1nc(OCC2CCC2)nc2c1NC(=O)CN2Cc1cccc(CN2CCCC2)c1 [Example 7, 4-amino-2-{(cyclobutyl)methoxy}-8-[3′-(pyrrolidin-1″-ylmethyl)-benzyl]-5,6,7,8-tetrahydropteridin-6-one] | > 0.03 |
| CCC(CC)COc1nc(N)c2c(n1)N(Cc1cccc(CN3CCCC3)c1)CC(=O)N2 [Example 31] | ≤ 0.03 |
| Nc1nc(NC2CC2)nc2c1NC(=O)CN2Cc1cccc(CN2CCCC2)c1 [Example 35] | > 0.03 |
| Cc1ccc(CN2CC(=O)Nc3c(N)nc(OCC4CCOC4)nc32)cn1 (stereo not shown) [Example 115] | > 0.03 |
| CCCN(C)C(=O)c1nc(N)c2c(n1)N(Cc1ccc(CN3CCCC3)cc1)CC(=O)N2 [Example 85] | > 0.03 |

| Compound | minimal effective concentration [µM] |
| --- | --- |
| CCCCOc1nc(N)c2c(n1)N(CCC1CCN(Cc3ccccc3)CC1)CC(=O)N2 [Example 108] | > 0.03 |
| CCCCOc1nc(N)c2[nH]c(=O)c(=O)n(Cc3ccccc3CN3CCCC3)c2n1 [Example 89] | ≤ 0.03 |
| Nc1nc(N[C@@H]2CCOC2)nc2c1NC(=O)CN2Cc1cccc(CN2CCCC2)c1 [Example 46] | > 0.03 |
| CCCCCc1nc(N)c2c(n1)N(Cc1cccc(CN3CCCC3)c1)CC(=O)N2 [Example 53] | > 0.03 |
| Nc1nc(NCC2CCCO2)nc2c1NC(=O)CN2Cc1cccc(CN2CCCC2)c1 (stereo not shown) [Example 77] | > 0.03 |
| Nc1nc(OCCCC(F)(F)F)nc2c1NC(=O)CN2Cc1cccc(CN2CCCC2)c1 [Example 56] | ≤ 0.03 |
| Nc1nc(O[C@@H]2C[C@@H]3C[C@@H]3C2)nc2c1NC(=O)CN2Cc1cccc(CN2CCCC2)c1 [Example 68] | ≤ 0.03 |
| COCCOc1nc(N)c2c(n1)N(Cc1cccc(CN3CCCC3)c1)CC(=O)N2 [Example 2] | ≤ 0.03 |
| Nc1nc(OCCN2CCCC2=O)nc2c1NC(=O)CN2Cc1cccc(CN2CCCC2)c1 [Example 22] | > 0.03 |
| CCCCOc1nc(N)c2c(n1)N(Cc1cccc(CN3CCC(C(=O)O)CC3)c1)CC(=O)N2 [Example 75] | > 0.03 |
| CCCCOc1nc(N)c2c(n1)N(Cc1ccccc1CN1CCCC1)CC(=O)N2 [Example 57] | > 0.03 |
| CCC[C@@H](C)Oc1nc(N)c2c(n1)N(Cc1cccc(CN3CCCC3)c1)CC(=O)N2 [Example 58] | > 0.03 |
| CS(=O)(=O)CCNc1nc(N)c2c(n1)N(Cc1cccc(CN3CCCC3)c1)CC(=O)N2 [Example 44] | > 0.03 |
| CCCCOc1nc(N)c2c(n1)N(Cc1ccc3c(c1)CN(C(C)C)CC3)CC(=O)N2 [Example 71] | ≤ 0.03 |
| CCCCOc1nc(N)c2c(n1)N(Cc1ccc(C(F)(F)F)nc1)CC(=O)N2 [Example 117] | > 0.03 |
| CCCCOc1nc(N)c2c(n1)N(Cc1cccc(CN3CCCC3)c1)CC(=O)N2 [Example 49, 4-amino-2-n-butoxy-8-[3′-(pyrrolidin-1″-ylmethyl)-benzyl]-5,6,7,8-tetrahydropteridin-6-one] | ≤ 0.03 |
| CCCCOc1nc(N)c2c(n1)N(Cc1ccc(-c3cccc(CN4CCCC4)c3)cc1)CC(=O)N2 [Example 96] | ≤ 0.03 |
| Nc1nc(NCc2ccco2)nc2c1NC(=O)CN2Cc1cccc(CN2CCCC2)c1 [Example 38] | ≤ 0.03 |
| CCCCOc1nc(N)c2[nH]c(=O)c(=O)n(Cc3ccc(-c4ccc(CN5CCCC5)cc4)cc3)c2n1 [Example 101] | > 0.03 |
| CCCN(C)C(=O)c1nc(N)c2c(n1)N(Cc1cccc(CN3CCCC3)c1)CC(=O)N2 [Example 81] | > 0.03 |
